Results on one molecule are retold here after patent US6869935B2, “Gene Therapy for proliferative vitreoretinopathy” (priority 1996, dated 2005).

In brackets after ≈: the same amount, converted by molar mass.

Test [1] deals with experimental proliferative vitreoretinopathy (HSV-tk positive/negative RDFs). Description: In vivo bystander effect in experimental proliferative vitreoretinopathy. Details: species or system pigmented rabbits. Here is the method:
The right eye was used from each of 20 pigmented rabbits of both sexes, weighing 2.5 to 3.5 kg each. Vitrectomy was performed in the same manner as described above. One week after vitrectomy, group D (n=7) received an injection into the vitreous cavity of a mixture of 0.25×10^4 homologous HSV-tk positive RDFs (5% of total cells) and 4.75×10^4 homologous HSV-tk negative RDFs (95% of total cells). Group E (n=7) received a mixture of 0.05×10^4 homologous HSV-tk positive RDFs […] HSV-tk negative RDFs (95% of total cells). Group F (n=6) received 5.0×10^4 homologous HSV-tk negative RDFs as a control. All eyes received 200 μg of ganciclovir (0.1 ml of solution dissolved in distilled water) just after the cell injection and on day 4. Indirect ophthalmoscopic examinations were performed in a masked fashion on days 4, 7, 14 and 28. Clinical severity of PVR was graded from 0 to 5 as described above.

Test [2] relates to fibroblasts bearing the HSV-TK gene. The note with it: rabbits; intraocular injection of fibroblasts bearing the HSV-TK gene; cited from earlier work.
The test system of test [3] is HSV-tk negative RDFs. The test is described as follows: In vitro sensitivity to ganciclovir (XTT assay), HSV-tk negative RDFs. The test is classed as cell-based, rabbit. The settings on record: concentration range 0.001-50 μg/ml. Here is the method: (§1) The sensitivity of HSV-tk positive RDFs (100% HSV-tk transduced RDFs) and HSV-tk negative RDFs to ganciclovir was determined by using a tetrazolium-based calorimetric assay (XTT assay) (Scudiero et al., Cancer Research, Vol. 48, pgs. 4827-4833 (1988); Roehm et al., J. Immunol. Methods, Vol. 142, pgs. 257-265 (1991)). HSV-tk positive RDFs and HSV-tk negative RDFs were seeded at a density of 5×10^3 cells/well of 96-well culture plates (Corning) and incubated with DMEM-10 at 37° C. in 5% CO2 overnight. Then cells were treated with DMEM-10 containing various concentrations of ganciclovir (GCV; Cytovene; Syntex Inc., Palo Alto, Calif.) or only DMEM-10. After a total of 72 hr incubation, XTT assay was performed using a kit (cell proliferation II; Boehringer Mannheim, Indianapolis, Ind.). The results were read on a microplate reader (MR700; Dynatech Laboratories, Inc., Chantilly, Va.).

Test [4] relates to HSV-tk positive RDFs. Description: In vitro sensitivity to ganciclovir (XTT assay), HSV-tk positive RDFs. The note with it: Oryctolagus cuniculus, 72 hr of incubation, read-out: IC50 (concentration required for 50% cytotoxicity). The test is classed as cell-based, rabbit. Here is the method:
as §1

In test [5] the test system is mixtures of HSV-tk-positive and -negative RDFs. Description: In vitro bystander effect, cocultures of HSV-tk positive and negative cells. Format: cell-based, rabbit. The note with it: 1 μg/ml ganciclovir; 3 days of incubation; effect depended on percentage of HSV-tk positive cells. On the procedure: To determine the cytotoxic effect of a small number of HSV-tk positive cells on neighboring HSV-tk-negative cells, cocultures of HSV-tk positive cells and HSV-tk-negative cells were performed by mixing these two cells in varying proportions. Briefly, mixtures of HSV-tk-positive and -negative RDFs (2.0×10^4 cells/well) were seeded at various mixing ratios (0, 1.0, 2.5, 5.0, 10, and 100% HSV-tk-positive cells of total cells) in 24-well culture plates (Corning) and incubated at 37° C. in 5% CO2 overnight. Cells were then treated with 1 μg/ml ganciclovir for 3, 5, and 7 days. The number of cells was counted with a Coulter counter (Coulter Electronics, Inc., Hialeah, Fla.).

Turning to `Nc1nc(O)c2ncn(COC(CO)CO)c2n1` [ganciclovir], the “Retinal detachment (stages 3-5)” value in test [1] (group D (5% HSV-tk positive RDFs), 200 μg ganciclovir intravitreal after cell injection and day 4, day 4 and day 7) is “no retinal detachment”; in test [1] (group D (5% HSV-tk positive RDFs), 200 μg ganciclovir, day 14 and day 28) it was “No eyes showed retinal detachment”; in test [1] (group E (1% HSV-tk positive RDFs), 200 μg ganciclovir, day 4 and day 7), “no retinal detachment”. In addition, the “Eyes with retinal detachment (stages 3-5)” value is given as 14.3% in test [1] (group E (1% HSV-tk positive RDFs), 200 μg ganciclovir, day 14 and day 28); 16.7% in test [1] (group F (100% HSV-tk negative RDFs), 200 μg ganciclovir, day 4); 50% in test [1] (group F (100% HSV-tk negative RDFs), 200 μg ganciclovir, day 7); 66.7% in test [1] (group F (100% HSV-tk negative RDFs), 200 μg ganciclovir, day 14 and day 28). In test [2], the “Experimental PVR” value is listed as “inhibited”. Besides, the “Toxicity to HSV-tk negative RDFs” value in test [3] is given as “no significant toxicity”. In test [4], the IC50 was 0.1 µg/mL (≈ 0.392 µM). The “Proliferation of co-culturing cells” value in test [5] was “inhibited proliferation of co-culturing cells”.
